Test results taken from patent publication US20260317314A1, “NITROGEN-CONTAINING HETEROCYCLIC COMPOUND AND USE THEREOF” (JIANGSU DEYUAN PHARMACEUTICAL CO.,LTD., priority 2023, published 2026).

Assays:
[1] = Plasma protein binding rate test, cynomolgus monkey (equilibrium dialysis); format: in vitro ADME; conditions: 37° C., read-out: Plasma protein binding rate (%) in cynomolgus monkeys (converted)
Source text: The sample was thoroughly mixed.

CYP1A2 = biological target: T1, CYP1A2 (Homo sapiens, UniProt P05177); test: Human liver microsome CYP inhibition assay, CYP1A2; format: in vitro ADME; conditions: role: inhibitor; human liver microsomes, probe substrate; read-out: CYP1A2 half maximal inhibitory concentration IC50
T1 construct: Mixed human liver microsomes (HLM) were purchased from Corning Inc; tissue Corning Inc; host or cells: mixed human liver microsomes (HLM)
T1 sequence (P05177 1-516): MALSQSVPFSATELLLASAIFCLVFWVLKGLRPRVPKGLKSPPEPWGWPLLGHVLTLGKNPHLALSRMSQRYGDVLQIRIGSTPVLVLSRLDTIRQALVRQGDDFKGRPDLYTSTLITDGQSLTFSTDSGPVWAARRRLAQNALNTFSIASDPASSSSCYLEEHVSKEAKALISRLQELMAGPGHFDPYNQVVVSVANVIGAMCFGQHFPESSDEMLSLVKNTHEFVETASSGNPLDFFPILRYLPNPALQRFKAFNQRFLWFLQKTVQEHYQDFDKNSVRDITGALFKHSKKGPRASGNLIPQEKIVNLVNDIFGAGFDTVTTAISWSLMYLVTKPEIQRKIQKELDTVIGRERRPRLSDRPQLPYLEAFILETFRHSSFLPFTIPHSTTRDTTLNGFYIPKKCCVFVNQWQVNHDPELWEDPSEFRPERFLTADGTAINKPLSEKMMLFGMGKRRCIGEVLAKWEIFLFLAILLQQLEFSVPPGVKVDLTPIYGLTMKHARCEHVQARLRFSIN
Protocol: (§1) Experimental objective: To evaluate the inhibitory activity of the test substance on human liver microsomal cytochrome P450 isoenzymes (CYP1A2, CYP2C9, CYP2C19, CYP2D6, CYP3A4) using a 5-in-1 probe substrate for CYP isoenzymes.
(§2) Mixed human liver microsomes (HLM) were purchased from Corning Inc. (Steuben, New York, USA) and stored at temperatures below −70° C. prior to use.
(§3) The working solution of the test substance, which had been diluted to a series of concentrations, was added to an incubation system containing human liver microsomes, probe substrates, and auxiliary factors of the circulatory system. A control containing solvent but no test substance served as an enzyme activity control (100%). The concentration of metabolites produced from probe substrates in the samples was determined using Liquid Chromatography-Tandem Mass Spectrometry (LC-MS/MS) method. Non-linear regression analysis of the average percentage activity of the test substance against its concentration was conducted using SigmaPlot (V.11). The IC50 values were calculated using a three-parameter or four-parameter inverse log equation.

CYP3A4 = biological target: T2, CYP3A4 (Homo sapiens, UniProt P08684); test: Human liver microsome CYP inhibition assay, CYP3A4; format: in vitro ADME; conditions: role: inhibitor; human liver microsomes, probe substrate; read-out: CYP3A4 half maximal inhibitory concentration IC50
T2 construct: Mixed human liver microsomes (HLM) were purchased from Corning Inc; tissue Corning Inc; host or cells: mixed human liver microsomes (HLM)
Protocol: as §1, §2, §3

CYP2C9 = biological target: T3, CYP2C9 (Homo sapiens, UniProt P11712); test: Human liver microsome CYP inhibition assay, CYP2C9; format: in vitro ADME; conditions: role: inhibitor; human liver microsomes, probe substrate; read-out: CYP2C9 half maximal inhibitory concentration IC50
T3 construct: Mixed human liver microsomes (HLM) were purchased from Corning Inc; tissue Corning Inc; host or cells: mixed human liver microsomes (HLM)
Protocol: as §1, §2, §3

human CYP11B2 = biological target: T4, human CYP11B2 (Homo sapiens, UniProt P19099); test: In vitro activity assay of monoclonal cells overexpressing human CYP11B2; format: cell-based; conditions: G402 cells overexpressing human CYP11B2; substrate 11-deoxycorticosterone; 16 hours; aldosterone by LCMS/MS
T4 construct: expressed in transfected cells; host or cells: human renal leiomyoma G402 cell line (monoclonal cells overexpressing human CYP11B2)
T4 sequence (P19099 25-503): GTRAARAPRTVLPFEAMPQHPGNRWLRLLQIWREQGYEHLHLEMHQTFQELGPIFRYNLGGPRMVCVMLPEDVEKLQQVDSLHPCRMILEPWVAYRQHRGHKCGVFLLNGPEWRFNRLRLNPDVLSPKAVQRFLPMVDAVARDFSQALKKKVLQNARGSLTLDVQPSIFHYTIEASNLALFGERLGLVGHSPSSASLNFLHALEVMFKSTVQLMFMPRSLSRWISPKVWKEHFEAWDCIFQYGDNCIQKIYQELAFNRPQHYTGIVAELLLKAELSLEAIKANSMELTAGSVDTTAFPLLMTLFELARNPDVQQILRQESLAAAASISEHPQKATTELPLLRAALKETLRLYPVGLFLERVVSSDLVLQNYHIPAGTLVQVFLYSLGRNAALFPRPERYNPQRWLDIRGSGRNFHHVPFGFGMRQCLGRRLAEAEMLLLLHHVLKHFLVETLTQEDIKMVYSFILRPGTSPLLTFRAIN
Protocol: The human renal leiomyoma G402 cell line overexpressing human CYP11B2 was selected to serve as a compound activity screening system.
• 2) Compound details: The test compound was prepared as a 10 μM working concentration using DMSO.
Day 1: Cells were digested, and human renal leiomyoma G402 cells overexpressing human CYP11B2 were resuspended to 1×10^5 cells/mL, with 100 μL seeded into a 96-well plate.
Day 2: The medium was replaced with DMEM/F12 containing 2.5% charcoal-stripped fetal bovine serum; test compounds were added: 5 μL of test compound was added to the cell culture medium to achieve final concentrations of 10000, 2500, 625, 156.25, 39.06, 9.77, 2.44, 0.61, 0.15, and 0 nM (with a DMSO content of 0.1%).
After one hour, the substrate was added: 30 mM 11-deoxycorticosterone was diluted 1500-fold with culture medium, and 5 μL was dispensed per well to achieve a final concentration of […], followed by incubation for 16 hours.
Day 3: The cell supernatant was collected and added to 200 μL of a methanol solution containing internal standards (internal standards: 35 ng/mL ketoprofen or 7.5 ng/mL carbamazepine or 5 ng/mL diphenhydramine or 10 ng/mL tolbutamide). The mixture was vortexed and centrifuged (4000×g, 4° C., 5 minutes). Then, 100 μL of the supernatant was taken and mixed with 100 μL of pure water. The mixture was centrifuged (4000 g, 4° C., 15 min), and the supernatant was analyzed by ESI-LCMS/MS. • 4) Data analysis:
Ratio=Aldosterone peak area/Internal standard peak area
Control activity %=(Ratio test compound/Ratio DMSO)×100%
“Ratio test compound” represents the Ratio values at different concentrations of the test compound.
“Ratio DMSO” represents the Ratio value without the addition of the test compound. • X=Log (compound concentration) • Y=Control activity %
The IC50 of the test compound was determined by fitting to a nonlinear regression equation using XLfit 5.5.0.

T2 sequence (P08684 whole entry): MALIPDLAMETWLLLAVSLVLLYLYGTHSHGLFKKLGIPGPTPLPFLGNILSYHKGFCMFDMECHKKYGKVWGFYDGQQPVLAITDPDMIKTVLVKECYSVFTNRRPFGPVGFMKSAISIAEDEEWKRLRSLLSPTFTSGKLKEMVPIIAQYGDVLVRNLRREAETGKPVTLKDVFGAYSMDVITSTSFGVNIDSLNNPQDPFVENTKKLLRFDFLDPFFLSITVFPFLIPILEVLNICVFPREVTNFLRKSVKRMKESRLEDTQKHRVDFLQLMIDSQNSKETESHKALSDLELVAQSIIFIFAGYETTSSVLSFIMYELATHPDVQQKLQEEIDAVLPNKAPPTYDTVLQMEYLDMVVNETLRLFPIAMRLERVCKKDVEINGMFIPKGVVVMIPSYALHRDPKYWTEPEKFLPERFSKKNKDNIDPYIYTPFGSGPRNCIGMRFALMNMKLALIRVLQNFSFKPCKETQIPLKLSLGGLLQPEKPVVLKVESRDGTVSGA
T3 sequence (P11712 whole entry): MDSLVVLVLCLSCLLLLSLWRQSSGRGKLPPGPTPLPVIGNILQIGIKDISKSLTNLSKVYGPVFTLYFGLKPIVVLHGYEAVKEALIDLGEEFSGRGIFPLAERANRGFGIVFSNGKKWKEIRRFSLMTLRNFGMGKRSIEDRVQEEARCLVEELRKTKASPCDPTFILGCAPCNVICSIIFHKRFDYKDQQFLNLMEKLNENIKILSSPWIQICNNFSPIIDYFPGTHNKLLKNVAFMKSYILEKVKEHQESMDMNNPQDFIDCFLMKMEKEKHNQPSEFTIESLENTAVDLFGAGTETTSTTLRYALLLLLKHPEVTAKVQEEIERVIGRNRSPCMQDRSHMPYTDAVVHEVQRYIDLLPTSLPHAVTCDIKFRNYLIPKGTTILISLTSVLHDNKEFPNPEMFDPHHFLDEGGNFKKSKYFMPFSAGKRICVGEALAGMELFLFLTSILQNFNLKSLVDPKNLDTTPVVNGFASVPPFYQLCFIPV

A fraction unbound at 4 h [1] of 0.451, an IC50 (CYP1A2) of over 50 µM and an IC50 (CYP3A4) of over 50 µM were found for CCC(=O)N[C@H]1CCOc2c(-c3ccc4c(c3)CCC(=O)N4C)cncc21 (single isomer, unassigned) [Compound 037] in this work. The IC50 (CYP2C9) was over 50 µM and the IC50 (human CYP11B2) was 0.0142 µM.
